Earlier results, collected in patent publication US20250312371A1, “CROSS-LINKED POLYMERIC CHELATORS COMPOSITIONS AND USE THEREOF” (THE UNIVERSITY OF KANSAS, priority 2021, published 2025).

In the case of `O=C(N[C@H]1COC(=O)[C@@H](NC(=O)c2cccc(O)c2O)COC(=O)[C@@H](NC(=O)c2cccc(O)c2O)COC1=O)c1cccc(O)c1O` [Enterobactin], the “relative iron binding constant” value (Fe(III)) is listed as 35.5 and the “Log K” value (iron chelation) is listed as 52.
